Assay results from paper PMC9316855 (Molecules, 2022).
Like-named read-outs stand apart in the source and are kept apart here.

How the values were obtained:
[1] = 4 h; cited from earlier work
[2] = 24 h; cited from earlier work

## CC(C)C[C@H](NC(=O)[C@H](CC(=O)O)NC(=O)CNC(=O)[C@H](CCCNC(=N)N)NC(=O)[C@H](CC(C)C)NC(=O)[C@H](CC(N)=O)NC(=O)[C@@H]1CCCN1C(=O)[C@@H](NC(=O)[C@H](C)NC(=O)[C@@H](N)CC(N)=O)C(C)C)C(=O)N[C@@H](CCC(N)=O)C(=O)N[C@H](C(=O)N[C@@H](CC(C)C)C(=O)N[C@@H](C)C(=O)N[C@@H](CCC(N)=O)C(=O)N[C@@H](CCCCN)C(=O)N[C@H](C(=O)N[C@@H](C)C(=O)N[C@@H](CCCNC(=N)N)C(=O)N[C@H](C(=O)O)[C@@H](C)O)C(C)C)C(C)C [Compound 13, H2N-^1NAVPNLRGDLQVLAQKVAR^20T-OH]
[1]
  peptide remaining intact in mouse serum: 50%
24 h
  peptide remaining intact in rat serum: almost completely degraded
48 h
  peptide remaining intact in rat serum: undetected
[2]
  peptide remaining in human plasma: > 75%
